# ChEMBL document CHEMBL1201862, “PubChem BioAssay data set” (2004)
#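 96-well plates; 48 h exposure; 5 concentrations. Endpoints by linear interpolation between flanking doses. Not reached: highest tested concentration assigned. GI50 is the concentration that inhibits growth by half.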 Active and inactive are the calls of the source. No stated cut-off is given here; in the data, active = GI50 up to about 1.1 µM and inactive = higher.
# What was measured:
# Experiment in all cases: inhibition of tumour cell growth, NCI panel, 48 h
# A549 = tested on: A549
# LXFL 529 = tested on: LXFL 529
# OVCAR-4 = tested on: OVCAR-4
# KM-20L2 = tested on: KM-20L2
# OVCAR-3 = tested on: OVCAR-3
# M19-MEL = tested on: M19-MEL
# NCI-H522 = tested on: NCI-H522
# HCT-116 = tested on: HCT-116
# OVCAR-5 = tested on: OVCAR-5
# IGROV-1 = tested on: IGROV-1
# SNB-75 = tested on: SNB-75
# LOX IMVI = tested on: LOX IMVI
# DMS-114 = tested on: DMS-114
# SR = tested on: SR
# TK-10 = tested on: TK-10
# MOLT-4 = tested on: MOLT-4
# SNB-78 = tested on: SNB-78
# RXF 631 = tested on: RXF 631
# NCI-H226 = tested on: NCI-H226
# UACC-62 = tested on: UACC-62
# DLD-1 = tested on: DLD-1
# OVCAR-8 = tested on: OVCAR-8
# M14 = tested on: M14
# SK-MEL-2 = tested on: SK-MEL-2
# CAKI-1 = tested on: CAKI-1
# Malme-3M = tested on: Malme-3M
# SF-268 = tested on: SF-268
# SK-MEL-5 = tested on: SK-MEL-5
# SNB-19 = tested on: SNB-19
# DMS-273 = tested on: DMS-273
# CCRF-CEM = tested on: CCRF-CEM
# SN12C = tested on: SN12C
# HL-60 = tested on: HL-60
# RXF 393 = tested on: RXF 393
# HOP-18 = tested on: HOP-18
# K562 = tested on: K562
# SK-OV-3 = tested on: SK-OV-3
# UO-31 = tested on: UO-31
# HCT-15 = tested on: HCT-15
# SF-539 = tested on: SF-539
# HOP-62 = tested on: HOP-62
# SF-295 = tested on: SF-295
# HT-29 = tested on: HT-29
# EKVX = tested on: EKVX
# UACC-257 = tested on: UACC-257
# NCI-H23 = tested on: NCI-H23
# HCC 2998 = tested on: HCC 2998
# ACHN = tested on: ACHN
# SW-620 = tested on: SW-620
# RPMI-8226 = tested on: RPMI-8226
# NCI-H460 = tested on: NCI-H460
# U-251 = tested on: U-251
# KM12 = tested on: KM12
# A498 = tested on: A498
# HOP-92 = tested on: HOP-92
# 786-0 = tested on: 786-0
# COLO 205 = tested on: COLO 205
# XF498 = tested on: XF498
structure (smiles),measurement,setting,value
CCOC(=O)c1ncoc1[C@H]1COC(C)(C)O1,GI50,A549,> 100 µM (inactive)
same,GI50,LXFL 529,> 100 µM (inactive)
same,GI50,OVCAR-4,> 100 µM (inactive)
same,GI50,KM-20L2,> 100 µM (inactive)
same,GI50,OVCAR-3,> 100 µM (inactive)
same,GI50,M19-MEL,> 100 µM (inactive)
same,GI50,NCI-H522,> 100 µM (inactive)
same,GI50,HCT-116,> 100 µM (inactive)
same,GI50,OVCAR-5,> 100 µM (inactive)
same,GI50,IGROV-1,> 100 µM (inactive)
same,GI50,SNB-75,> 100 µM (inactive)
same,GI50,LOX IMVI,> 100 µM (inactive)
same,GI50,DMS-114,> 100 µM (inactive)
same,GI50,SR,> 100 µM (inactive)
same,GI50,TK-10,> 100 µM (inactive)
same,GI50,MOLT-4,> 100 µM (inactive)
same,GI50,SNB-78,> 100 µM (inactive)
same,GI50,RXF 631,> 100 µM (inactive)
same,GI50,NCI-H226,> 100 µM (inactive)
same,GI50,UACC-62,> 100 µM (inactive)
same,GI50,DLD-1,> 100 µM (inactive)
same,GI50,OVCAR-8,> 100 µM (inactive)
same,GI50,M14,> 100 µM (inactive)
same,GI50,SK-MEL-2,> 100 µM (inactive)
same,GI50,CAKI-1,> 100 µM (inactive)
same,GI50,Malme-3M,> 100 µM (inactive)
same,GI50,SF-268,> 100 µM (inactive)
same,GI50,SK-MEL-5,> 100 µM (inactive)
same,GI50,SNB-19,> 100 µM (inactive)
same,GI50,DMS-273,> 100 µM (inactive)
same,GI50,CCRF-CEM,> 100 µM (inactive)
same,GI50,SN12C,> 100 µM (inactive)
same,GI50,HL-60,> 100 µM (inactive)
same,GI50,RXF 393,> 100 µM (inactive)
same,GI50,HOP-18,> 100 µM (inactive)
same,GI50,K562,> 100 µM (inactive)
same,GI50,SK-OV-3,> 100 µM (inactive)
same,GI50,UO-31,> 100 µM (inactive)
same,GI50,HCT-15,> 100 µM
same,GI50,SF-539,> 100 µM (inactive)
same,GI50,HOP-62,> 100 µM (inactive)
same,GI50,SF-295,> 100 µM (inactive)
same,GI50,HT-29,> 100 µM (inactive)
same,GI50,EKVX,> 100 µM (inactive)
same,GI50,UACC-257,> 100 µM (inactive)
same,GI50,NCI-H23,> 100 µM (inactive)
same,GI50,HCC 2998,> 100 µM (inactive)
same,GI50,ACHN,> 100 µM (inactive)
same,GI50,SW-620,> 100 µM (inactive)
same,GI50,RPMI-8226,> 100 µM (inactive)
same,GI50,NCI-H460,> 100 µM (inactive)
same,GI50,U-251,> 100 µM (inactive)
COc1ccc(S(=O)(=O)N/N=C/c2cc(I)cc([N+](=O)[O-])c2O)cc1OC,GI50,A549,> 100 µM (inactive)
same,GI50,LXFL 529,27 µM (inactive)
same,GI50,OVCAR-4,25.2 µM (inactive)
same,GI50,KM-20L2,> 100 µM (inactive)
same,GI50,OVCAR-3,24.5 µM (inactive)
same,GI50,KM12,31.3 µM (inactive)
same,GI50,M19-MEL,33 µM (inactive)
same,GI50,OVCAR-5,> 100 µM (inactive)
same,GI50,IGROV-1,37.7 µM (inactive)
same,GI50,A498,54.2 µM (inactive)
same,GI50,HOP-92,19.1 µM (inactive)
same,GI50,LOX IMVI,43.3 µM (inactive)
same,GI50,TK-10,62.1 µM (inactive)
same,GI50,MOLT-4,24.8 µM (inactive)
same,GI50,786-0,45.9 µM (inactive)
same,GI50,SNB-78,24.7 µM (inactive)
same,GI50,RXF 631,38.8 µM (inactive)
same,GI50,NCI-H226,22.7 µM (inactive)
same,GI50,UACC-62,25.8 µM (inactive)
same,GI50,DLD-1,36.3 µM (inactive)
same,GI50,COLO 205,50.9 µM (inactive)
same,GI50,OVCAR-8,53.2 µM (inactive)
same,GI50,M14,36.1 µM (inactive)
same,GI50,SK-MEL-2,22.5 µM (inactive)
same,GI50,XF498,24.1 µM (inactive)
same,GI50,CAKI-1,31.6 µM (inactive)
same,GI50,Malme-3M,28.7 µM (inactive)
same,GI50,SK-MEL-5,19.8 µM (inactive)
same,GI50,SNB-19,26.3 µM (inactive)
same,GI50,DMS-273,35.2 µM (inactive)
same,GI50,CCRF-CEM,34.4 µM (inactive)
same,GI50,SN12C,32.8 µM (inactive)
same,GI50,HL-60,23 µM (inactive)
same,GI50,HOP-18,21.6 µM (inactive)
same,GI50,K562,35.2 µM (inactive)
same,GI50,SK-OV-3,32.4 µM (inactive)
same,GI50,UO-31,22 µM (inactive)
same,GI50,HCT-15,36.6 µM
same,GI50,SF-295,29 µM (inactive)
same,GI50,HT-29,46.3 µM (inactive)
same,GI50,EKVX,44.5 µM (inactive)
same,GI50,UACC-257,39 µM (inactive)
same,GI50,HCC 2998,50.6 µM (inactive)
same,GI50,ACHN,30.4 µM (inactive)
same,GI50,SW-620,47.8 µM (inactive)
same,GI50,RPMI-8226,24 µM (inactive)
same,GI50,NCI-H460,55 µM (inactive)
same,GI50,U-251,32.7 µM (inactive)
